From patent publication US6737383B1, “Herbicidal oxadiazolidines” (priority 1999, dated 2004)

Columns and labels:
blackgrass = test: Test B pre/postemergence blackgrass; assay type: in vivo, Alopecurus myosuroides
Summary of the method: (§1)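 Test chemicals in a non-phytotoxic solvent mixture with surfactant were sprayed preemergence onto planted seeds and postemergence onto plants 2 to 18 cm tall (1- to 4-leaf stage). After twelve to sixteen days in a greenhouse, injury was visually rated against untreated controls from 0 (no effect) to 10 (complete control).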

cocklebur = test: Test B pre/postemergence cocklebur; assay type: in vivo, Xanthium strumarium
Summary of the method: as §1

corn = test: Test B pre/postemergence corn; assay type: in vivo, Zea mays
Summary of the method: as §1

crabgrass = test: Test B pre/postemergence crabgrass; assay type: in vivo, Digitaria sanguinalis
Summary of the method: as §1

giant foxtail = test: Test B pre/postemergence giant foxtail; assay type: in vivo, Setaria faberii
Summary of the method: as §1

morningglory = test: Test B pre/postemergence morningglory; assay type: in vivo, Ipomoea hederacea
Summary of the method: as §1

pigweed = test: Test B pre/postemergence pigweed; assay type: in vivo, Amaranthus retroflexus
Summary of the method: as §1

rape = test: Test B pre/postemergence rape; assay type: in vivo, Brassica napus
Summary of the method: as §1

soybean = test: Test B pre/postemergence soybean; assay type: in vivo, Glycine max
Summary of the method: as §1

sugar beet = test: Test B pre/postemergence sugar beet; assay type: in vivo, Beta vulgaris
Summary of the method: as §1

velvetleaf = test: Test B pre/postemergence velvetleaf; assay type: in vivo, Abutilon theophrasti
Summary of the method: as §1

wheat = test: Test B pre/postemergence wheat; assay type: in vivo, Triticum aestivum
Summary of the method: as §1

purple nutsedge = test: Test B pre/postemergence purple nutsedge; assay type: in vivo, Cyperus rotundus
Summary of the method: as §1

rice = test: Test B flood test rice; assay type: in vivo, Oryza sativa
Summary of the method: (§2)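 Each value is a visual injury score relative to controls, with 10 meaning complete control and 0 no effect. Evaluation took place twelve to sixteen days after the 2-leaf-stage plants were treated and kept in the greenhouse.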

smallflower flatsedge = test: Test B flood test smallflower flatsedge; assay type: in vivo, Cyperus difformis
Summary of the method: as §2

duck salad = test: Test B flood test duck salad; assay type: in vivo, Heteranthera limosa
Summary of the method: as §2

[1] = Postemergence, Rate 125 g/ha, scale of 0 to 10 where 0 is no effect and 10 is complete control
[2] = Preemergence, Rate 62 g/ha, scale 0 to 10 (0 no effect, 10 complete control)
[3] = Preemergence, Rate 125 g/ha, 0 is no effect, 10 is complete control
[4] = Preemergence, Rate 250 g/ha, scale 0 to 10, 0 is no effect, 10 is complete control
[5] = Preemergence, Rate 500 g/ha, scale 0 to 10 (0 no effect, 10 complete control)
[6] = Rate 62 g/ha, Postemergence, scale of 0 to 10 where 0 is no effect and 10 is complete control
[7] = Rate 250 g/ha, Postemergence, scale 0 to 10, 0 is no effect, 10 is complete control
[8] = Rate 500 g/ha, Postemergence, scale 0 to 10
[9] = Postemergence (flood test species), Rate 125 g/ha, scale of 0 to 10 where 0 is no effect and 10 is complete control
[10] = Rate 62 g/ha, Postemergence section, flood test species, scale of 0 to 10 where 0 is no effect and 10 is complete control
[11] = Rate 250 g/ha, Postemergence (flood test), scale 0 to 10, 0 is no effect, 10 is complete control
[12] = Rate 250 g/ha, Pre-emergence, flood-test species, scale 0 to 10, 0 is no effect, 10 is complete control
[13] = Rate 500 g/ha, headed Pre-emergence (flood test species), scale 0 to 10 (0 no effect, 10 complete control)
[14] = Rate 500 g/ha, listed under Postemergence (flood test species), scale 0 to 10
[15] = Rate 1000 g/ha, Pre-emergence (as headed), scale 0 to 10
[16] = Rate 2000 g/ha, Pre-emergence (as headed), scale 0 to 10

## C=CCn1c(=O)on(C(=O)N(c2ccc(F)cc2)C2CC2)c1=O [Compound 154]
blackgrass; [1]
  Blackgrass plant response rating: 0
blackgrass; [2]
  Blackgrass plant response rating: 0
blackgrass; [3]
  Blackgrass plant response rating (0 to 10 scale): 0
blackgrass; [4]
  Blackgrass plant response rating: 3
blackgrass; [5]
  Blackgrass plant response rating: 5
blackgrass; [6]
  Blackgrass plant response rating: 0
blackgrass; [7]
  Plant response rating, Blackgrass: 0
blackgrass; [8]
  Blackgrass plant response rating: 0
cocklebur; [1]
  Cocklebur plant response rating: 0
cocklebur; [2]
  Cocklebur plant response rating: 0
cocklebur; [3]
  Cocklebur plant response rating (0 to 10 scale): 0
cocklebur; [4]
  Cocklebur plant response rating: 0
cocklebur; [5]
  Cocklebur plant response rating: 0
cocklebur; [6]
  Cocklebur plant response rating: 0
cocklebur; [7]
  Plant response rating, Cocklebur: 0
cocklebur; [8]
  Cocklebur plant response rating: 2
corn; [1]
  Corn plant response rating: 0
corn; [2]
  Corn plant response rating: 0
corn; [3]
  Corn plant response rating (0 to 10 scale): 0
corn; [4]
  Corn plant response rating: 0
corn; [5]
  Corn plant response rating: 0
corn; [6]
  Corn plant response rating: 0
corn; [7]
  Plant response rating, Corn: 0
corn; [8]
  Corn plant response rating: 0
crabgrass; [1]
  Crabgrass plant response rating: 0
crabgrass; [2]
  Crabgrass plant response rating: 0
crabgrass; [3]
  Crabgrass plant response rating (0 to 10 scale): 0
crabgrass; [4]
  Crabgrass plant response rating: 0
crabgrass; [5]
  Crabgrass plant response rating: 0
crabgrass; [6]
  Crabgrass plant response rating: 0
crabgrass; [7]
  Plant response rating, Crabgrass: 1
crabgrass; [8]
  Crabgrass plant response rating: 5
Giant foxtail; [1]
  Giant foxtail plant response rating: 0
Giant foxtail; [2]
  Giant foxtail plant response rating: 0
Giant foxtail; [3]
  Giant foxtail plant response rating (0 to 10 scale): 0
Giant foxtail; [5]
  Giant foxtail plant response rating: 8
Giant foxtail; [6]
  Giant foxtail plant response rating: 0
Giant foxtail; [7]
  Plant response rating, Giant foxtail: 1
Giant foxtail; [8]
  Giant foxtail plant response rating: 3
morningglory; [1]
  Morningglory plant response rating: 0
morningglory; [2]
  Morningglory plant response rating: 0
morningglory; [3]
  Morningglory plant response rating (0 to 10 scale): 0
morningglory; [4]
  Morningglory plant response rating: 0
morningglory; [5]
  Morningglory plant response rating: 0
morningglory; [6]
  Morningglory plant response rating: 0
morningglory; [7]
  Plant response rating, Morningglory: 1
morningglory; [8]
  Morningglory plant response rating: 2
pigweed; [1]
  Redroot pigweed plant response rating: 0
pigweed; [2]
  Redroot pigweed plant response rating: 6
pigweed; [3]
  Redroot pigweed plant response rating (0 to 10 scale): 7
pigweed; [4]
  Redroot pigweed plant response rating: 8
pigweed; [5]
  Redroot pigweed plant response rating: 9
pigweed; [6]
  Redroot pigweed plant response rating: 0
pigweed; [7]
  Plant response rating, Redroot pigweed: 2
pigweed; [8]
  Redroot pigweed plant response rating: 6
rape; [1]
  Rape plant response rating: 0
rape; [2]
  Rape plant response rating: 0
rape; [3]
  Rape plant response rating (0 to 10 scale): 0
rape; [4]
  Rape plant response rating: 0
rape; [5]
  Rape plant response rating: 0
rape; [6]
  Rape plant response rating: 0
rape; [7]
  Plant response rating, Rape: 0
rape; [8]
  Rape plant response rating: 0
soybean; [1]
  Soybean plant response rating: 2
soybean; [2]
  Soybean plant response rating: 0
soybean; [3]
  Soybean plant response rating (0 to 10 scale): 0
soybean; [4]
  Soybean plant response rating: 0
soybean; [5]
  Soybean plant response rating: 0
soybean; [6]
  Soybean plant response rating: 2
soybean; [7]
  Plant response rating, Soybean: 2
soybean; [8]
  Soybean plant response rating: 3
Sugar beet; [1]
  Sugarbeets plant response rating: 0
Sugar beet; [2]
  Sugarbeets plant response rating: 0
Sugar beet; [3]
  Sugarbeets plant response rating (0 to 10 scale): 0
Sugar beet; [4]
  Sugarbeets plant response rating: 4
Sugar beet; [5]
  Sugarbeets plant response rating: 6
Sugar beet; [6]
  Sugarbeets plant response rating: 0
Sugar beet; [7]
  Plant response rating, Sugarbeets: 0
Sugar beet; [8]
  Sugarbeets plant response rating: 0
velvetleaf; [2]
  Velvetleaf plant response rating: 0
velvetleaf; [3]
  Velvetleaf plant response rating (0 to 10 scale): 0
velvetleaf; [4]
  Velvetleaf plant response rating: 0
velvetleaf; [5]
  Velvetleaf plant response rating: 0
velvetleaf; [6]
  Velvetleaf plant response rating: 0
velvetleaf; [7]
  Plant response rating, Velvetleaf: 0
velvetleaf; [8]
  Velvetleaf plant response rating: 0
wheat; [2]
  Wheat plant response rating: 0
wheat; [3]
  Wheat plant response rating (0 to 10 scale): 0
wheat; [4]
  Wheat plant response rating: 0
wheat; [5]
  Wheat plant response rating: 0
wheat; [6]
  Wheat plant response rating: 0
wheat; [7]
  Plant response rating, Wheat: 0
wheat; [8]
  Wheat plant response rating: 0
Purple nutsedge; [1]
  Nutsedge plant response rating: 0
Purple nutsedge; [2]
  Nutsedge plant response rating: 0
Purple nutsedge; [3]
  Nutsedge plant response rating (0 to 10 scale): 0
Purple nutsedge; [4]
  Nutsedge plant response rating: 0
Purple nutsedge; [5]
  Nutsedge plant response rating: 0
Purple nutsedge; [6]
  Nutsedge plant response rating: 0
Purple nutsedge; [7]
  Plant response rating, Nutsedge: 0
Purple nutsedge; [8]
  Nutsedge plant response rating: 0
rice; [9]
  Rice plant response rating: 0
rice; [10]
  Rice plant response rating: 0
rice; [11]
  Plant response rating, Rice: 0
rice; [12]
  Rice plant response rating: 0
rice; [13]
  Plant response rating, Rice: 0
rice; [14]
  Rice plant response rating: 0
rice; [15]
  Rice plant response rating: 0
rice; [16]
  Rice plant response rating: 0
Smallflower flatsedge; [9]
  S. Flatsedge plant response rating: 0
Smallflower flatsedge; Pre-emergence, Rate 1000 g/ha, scale 0 to 10 (0 no effect, 10 complete control)
  S. Flatsedge plant response rating: 0
Smallflower flatsedge; [10]
  S. Flatsedge plant response rating: 0
Smallflower flatsedge; [11]
  Plant response rating, S. Flatsedge: 0
Smallflower flatsedge; [12]
  S. Flatsedge plant response rating: 0
Smallflower flatsedge; [14]
  S. Flatsedge plant response rating: 0
Smallflower flatsedge; Rate 500 g/ha, Pre-emergence, flood test species, scale 0 to 10 (0 no effect, 10 complete control)
  S. Flatsedge plant response rating: 0
Smallflower flatsedge; [16]
  S. Flatsedge plant response rating: 0
Duck salad; [9]
  Ducksalad plant response rating: 0
Duck salad; [10]
  Ducksalad plant response rating: 0
Duck salad; [11]
  Plant response rating, Ducksalad: 0
Duck salad; [12]
  Ducksalad plant response rating: 0
Duck salad; [13]
  Plant response rating, Ducksalad: 0
Duck salad; [14]
  Ducksalad plant response rating: 0
Duck salad; [15]
  Ducksalad plant response rating: 0
Duck salad; [16]
  Ducksalad plant response rating: 0
